The target in the test is anti-ASARM-peptide polyclonal. Briefly: Competitive ELISA, biotinylated against non-biotinylated ASARM-peptide. The format is binding, Rabbit. The settings on record: 0.5 ng/mL biotinylated ASARM-peptide. The text has this: MEPE ASARM-peptide (phosphorylated and non-phosphorylated) & polyclonal antibodies. The carboxy terminal region of MEPE containing residues 507-525 were synthesized using routine techniques by multiple peptide cloning systems (Multiple Peptide Systems, San Diego, Calif.). For ELISA studies, both phosphorylated and non-phosphorylated peptides were synthesized. The phosphorylated-form of the peptide (NH2—RDDSSESSDSG(Sp)S(Sp)E(Sp)DGD-COOH; SEQ ID NO. 14) was biotinylated using a Pierce EZ-Link Sulfo-NHS-LC-Biotinylation Kit (Pierce & Co, Rockford, Ill.) and the peptide de-salted using an Amersham Biosciences PD-10 Desalting column (Amersham Biosciences, Piscataway, N.J.). […] Rabbit polyclonal antibodies raised against ASARM-peptide NH2-[…]-COOH (SEQ ID NO. 5) were used in these studies and have been previously described (Rowe, et al., Bone 34:303-319, 2004). Pre-immune sera from the same rabbits were used as negative controls.
ELISA Assay. A new enzyme-linked-immunosorbent-assay (ELISA) was designed to specifically quantitate ASARM-peptide(s) in sera from humans and mice. […]

For “H-CFSSRRRDDSSESSDSGSSSESDGD-OH [ASARM-peptide]”, the “KD of quenching in competitive ELISA” value is reported as 7.5 ng/mL and the “Qmax (quench maximum)” value is 98.7%.

For the origin of these results see patent US20070099822A1, “Regulation of tissue mineralization and phosphate metabolism by asarm peptides” (priority 2003, published 2007).
